From patent US8735584B2 (Merck Patent GmbH, priority 2008, dated 2014)

molecular target: T1, GST-Aurora A (Homo sapiens, UniProt O14965); test: Aurora A IC50, Caliper LC3000 mobility shift assay; type: biochemical; details: LC3000 method; 15 uM ATP (the KM value); read-out: Aurora Kinase A Activity (IC50)
T1 construct: N-terminal GST fusion with full length Aurora A (1-403 amino acids); purchased Carna Biosciences 05-101
T1 sequence (O14965 1-403): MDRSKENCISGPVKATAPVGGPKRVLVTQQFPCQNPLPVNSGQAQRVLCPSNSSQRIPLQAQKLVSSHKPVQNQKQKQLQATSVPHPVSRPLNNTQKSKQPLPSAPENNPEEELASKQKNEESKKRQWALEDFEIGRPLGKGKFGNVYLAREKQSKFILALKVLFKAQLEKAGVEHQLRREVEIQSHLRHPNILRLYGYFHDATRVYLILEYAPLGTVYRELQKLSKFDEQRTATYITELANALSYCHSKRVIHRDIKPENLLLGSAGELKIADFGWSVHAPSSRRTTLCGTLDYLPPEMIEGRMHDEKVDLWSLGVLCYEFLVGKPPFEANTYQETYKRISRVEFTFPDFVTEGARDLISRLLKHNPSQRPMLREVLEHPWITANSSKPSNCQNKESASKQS
How it was run: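 Readout: percent conversion of FITC-LRRASLG (1 uM) to phosphopeptide, resolved electrophoretically on a Caliper LC3000, fitted against inhibitor concentration for IC50. Reaction: N-terminal GST full-length Aurora A, ATP at its KM (15 uM), pH 7.5 HEPES with MgCl2/DTT, 25 C for 90 min.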

Row | IC50 [µM] | SMILES
1 | > 0.1 | O=C(CN1CCC(Nc2ccnc3[nH]c(=O)c4ccccc4c23)CC1)Nc1ccccn1 [Compound 483, 2-(4-(6-Oxo-5,6-dihydrobenzo[c][1,8]naphthyridin-1-ylamino)piperidin-1-yl)-N-(pyridin-2-yl)acetamide]
2 | > 0.1 | O=C(CN1CCC(Nc2ccnc3[nH]c(=O)c4ccccc4c23)CC1)NC1CCCCC1 [Compound 485, N-Cyclohexyl-2-(4-(6-oxo-5,6-dihydrobenzo[c][1,8]naphthyridin-1-ylamino)piperidin-1-yl)acetamide]
3 | > 0.1 | O=C(CN1CCC(Nc2ccnc3[nH]c(=O)c4ccccc4c23)CC1)NC1CC1 [Compound 488, N-Cyclopropyl-2-(4-(6-oxo-5,6-dihydrobenzo[c][1,8]naphthyridin-1-ylamino)piperidin-1-yl)acetamide]
4 | 0.011 to 0.1 | O=C(Nc1ccc(Nc2ccnc3[nH]c(=O)c4ccccc4c23)cc1)C1(c2ccccc2)CCCC1 [Compound 494, N-(4-(6-Oxo-5,6-dihydrobenzo[c][1,8]naphthyridin-1-ylamino)phenyl)-1-phenylcyclopentanecarboxamide]
5 | 0.011 to 0.1 | O=C(Nc1ccc(Nc2ccnc3[nH]c(=O)c4ccccc4c23)cc1)C(CC1CCCO1)C(F)(F)F (stereo not drawn) [Compound 495, 3,3,3-Trifluoro-N-(4-(6-oxo-5,6-dihydrobenzo[c][1,8]naphthyridin-1-ylamino)phenyl)-2-((tetrahydrofuran-2-yl)methyl)propanamide]
6 | < 0.011 | O=C(Nc1ccc(Nc2ccnc3[nH]c(=O)c4ccccc4c23)cc1)c1cccnc1C(F)(F)F [Compound 498, N-(4-(6-Oxo-5,6-dihydrobenzo[c][1,8]naphthyridin-1-ylamino)phenyl)-2-(trifluoromethyl)nicotinamide]
7 | 0.011 to 0.1 | O=C(Nc1ccc(Nc2ccnc3[nH]c(=O)c4ccccc4c23)cc1)C1(C(F)(F)F)CCCCC1 [Compound 499, N-(4-(6-Oxo-5,6-dihydrobenzo[c][1,8]naphthyridin-1-ylamino)phenyl)-1-(trifluoromethyl)cyclohexanecarboxamide]
8 | 0.011 to 0.1 | O=C(Nc1ccc(Nc2ccnc3[nH]c(=O)c4ccccc4c23)cc1)C1(C(F)(F)F)CCCC1 [Compound 500, N-(4-(6-Oxo-5,6-dihydrobenzo[c][1,8]naphthyridin-1-ylamino)phenyl)-1-(trifluoromethyl)cyclopentanecarboxamide]
9 | 0.011 to 0.1 | O=C(Nc1ccc(Nc2ccnc3[nH]c(=O)c4ccccc4c23)cc1)C1(C(F)(F)F)CC1 [Compound 501, N-(4-(6-Oxo-5,6-dihydrobenzo[c][1,8]naphthyridin-1-ylamino)phenyl)-1-(trifluoromethyl)cyclopropanecarboxamide]
10 | 0.011 to 0.1 | O=C(Nc1ccc(Nc2ccnc3[nH]c(=O)c4ccccc4c23)cc1)C1(c2ccccc2)CC1 [Compound 502, N-(4-(6-Oxo-5,6-dihydrobenzo[c][1,8]naphthyridin-1-ylamino)phenyl)-1-phenylcyclopropanecarboxamide]
11 | 0.011 to 0.1 | O=C(Cn1cccn1)Nc1ccc(Nc2ccnc3[nH]c(=O)c4ccccc4c23)cc1 [Compound 503, N-(4-(6-Oxo-5,6-dihydrobenzo[c][1,8]naphthyridin-1-ylamino)phenyl)-2-(1H-pyrazol-1-yl)acetamide]
12 | < 0.011 | COc1cccc(F)c1C(=O)Nc1ccc(Nc2ccnc3[nH]c(=O)c4ccccc4c23)cc1 [Compound 504, 2-Fluoro-6-methoxy-N-(4-(6-oxo-5,6-dihydrobenzo[c][1,8]naphthyridin-1-ylamino)phenyl)benzamide]
13 | 0.011 to 0.1 | O=C(Nc1ccc(Nc2ccnc3[nH]c(=O)c4ccccc4c23)cc1)C(F)c1ccccc1 (stereo not drawn) [Compound 505, 2-Fluoro-N-(4-(6-oxo-5,6-dihydrobenzo[c][1,8]naphthyridin-1-ylamino)phenyl)-2-phenylacetamide]
14 | 0.011 to 0.1 | O=C(Nc1ccc(Nc2ccnc3[nH]c(=O)c4ccccc4c23)cc1)c1ncccc1F [Compound 506, 3-Fluoro-N-(4-(6-oxo-5,6-dihydrobenzo[c][1,8]naphthyridin-1-ylamino)phenyl)picolinamide]
15 | > 0.1 | O=c1[nH]c2ncccc2c2cc(Nc3ccccc3F)ccc12 [Example 32, 9-(2-Fluoro-phenylamino)-5H-benzo[c][1,8]naphthyridin-6-one]
16 | > 0.1 | COc1cccc(CNc2ccc3c(=O)[nH]c4ncccc4c3c2)c1 [Example 42, 9-(3-Methoxy-benzylamino)-5H-benzo[c][1,8]naphthyridin-6-one]
17 | > 0.1 | O=c1[nH]c2ncccc2c2cc(NCc3ccc(F)cc3)ccc12 [Example 43, 9-(4-Fluoro-benzylamino)-5H-benzo[c][1,8]naphthyridin-6-one]
18 | 0.011 to 0.1 | O=c1[nH]c2ncccc2c2cc(NCc3ccccc3F)ccc12 [Example 44, 9-(2-Fluoro-benzylamino)-5H-benzo[c][1,8]naphthyridin-6-one]

Row | IC50 [µM] | SMILES
19 | > 0.1 | O=c1[nH]c2ncccc2c2cc(NCc3cccc4ccccc34)ccc12 [Example 45, 9-[(Naphthalen-1-ylmethyl)-amino]-5H-benzo[c][1,8]naphthyridin-6-one]
20 | > 0.1 | Cc1ccccc1CNc1ccc2c(=O)[nH]c3ncccc3c2c1 [Example 46, 9-(2-Methyl-benzylamino)-5H-benzo[c][1,8]naphthyridin-6-one]
21 | > 0.1 | Cc1cccc(CNc2ccc3c(=O)[nH]c4ncccc4c3c2)c1 [Example 47, 9-(3-Methyl-benzylamino)-5H-benzo[c][1,8]naphthyridin-6-one]
22 | 0.011 to 0.1 | O=c1[nH]c2ncccc2c2cc(NCc3ccccc3C(F)(F)F)ccc12 [Example 48, 9-(2-Trifluoromethyl-benzylamino)-5H-benzo[c][1,8]naphthyridin-6-one]
23 | > 0.1 | Clc1nc2ncccc2c2cc(NCc3ccccc3)ccc12 [Example 53, Benzyl-(6-chloro-benzo[c][1,8]naphthyridin-9-yl)-amine]
24 | 0.011 to 0.1 | O=c1[nH]c2ncccc2c2cc(NCc3cccc(C(F)(F)F)c3)ccc12 [Example 69, 9-(3-Trifluoromethyl-benzylamino)-5H-benzo[c][1,8]naphthyridin-6-one]
25 | > 0.1 | O=c1[nH]c2ncccc2c2cc(NS(=O)(=O)c3ccc(Br)cc3)ccc12 [Example 72, 4-Bromo-N-(6-oxo-5,6-dihydro-benzo[c][1,8]naphthyridin-9-yl)-benzenesulfonamide]
26 | > 0.1 | O=c1[nH]c2ncccc2c2cc(NCc3cccnc3)ccc12 [Example 123, 9-[(Pyridin-3-ylmethyl)-amino]-5H-benzo[c][1,8]naphthyridin-6-one]
27 | < 0.011 | COc1ccccc1C(=O)Nc1ccc(Nc2ccnc3[nH]c(=O)c4ccccc4c23)cc1 [Example 148, 2-Methoxy-N-[4-(6-oxo-5,6-dihydro-benzo[c][1,8]naphthyridin-1-ylamino)-phenyl]-benzamide]
28 | > 0.1 | Cn1ccnc1Sc1ccc(Nc2ccnc3[nH]c(=O)c4ccccc4c23)cc1Cl [Example 156, 1-[3-Chloro-4-(1-methyl-1H-imidazol-2-ylsulfanyl)-phenylamino]-5H-benzo[c][1,8]naphthyridin-6-one]
29 | > 0.1 | COc1cccc(C#Cc2ccnc3[nH]c(=O)c4ccccc4c23)c1 [Example 160, 1-(3-Methoxy-phenylethynyl)-5H-benzo[c][1,8]naphthyridin-6-one]
30 | 0.011 to 0.1 | O=c1[nH]c2nccc(Oc3ccc(NS(=O)(=O)c4cccc(Cl)c4Cl)cc3)c2c2ccccc12 [Example 173, 2,3-Dichloro-N-[4-(6-oxo-5,6-dihydro-benzo[c][1,8]naphthyridin-1-yloxy)-phenyl]-benzenesulfonamide]
31 | > 0.1 | O=C(Nc1ccc(Oc2ccnc3[nH]c(=O)c4ccccc4c23)cc1)c1cccn(-c2ccc(F)cc2)c1=O [Example 181, 1-(4-Fluoro-phenyl)-2-oxo-1,2-dihydro-pyridine-3-carboxylic acid [4-(6-oxo-5,6-dihydro-benzo[c][1,8]naphthyridin-1-yloxy)-phenyl]-amide]
32 | > 0.1 | O=C(Nc1ccc(Oc2ccnc3[nH]c(=O)c4ccccc4c23)c(F)c1)c1cc(Cl)cnc1Cl [Example 183, 2,5-Dichloro-N-[3-fluoro-4-(6-oxo-5,6-dihydro-benzo[c][1,8]naphthyridin-1-yloxy)-phenyl]-nicotinamide]
33 | > 0.1 | O=C(Nc1ccc(Oc2ccnc3[nH]c(=O)c4ccccc4c23)cc1F)c1cccn(-c2ccc(F)cc2)c1=O [Example 187, 1-(4-Fluoro-phenyl)-2-oxo-1,2-dihydro-pyridine-3-carboxylic acid [2-fluoro-4-(6-oxo-5,6-dihydro-benzo[c][1,8]naphthyridin-1-yloxy)-phenyl]-amide]
34 | > 0.1 | O=c1[nH]c2nccc(Nc3c(Cl)ccc4c3OCO4)c2c2ccccc12 [Example 188, 1-(5-Chloro-benzo[1,3]dioxol-4-ylamino)-5H-benzo[c][1,8]naphthyridin-6-one]
35 | 0.011 to 0.1 | COc1cc2c(=O)[nH]c3nccc(Nc4ccc(Cl)cc4)c3c2cc1OC [Example 213, 1-(4-Chloro-phenylamino)-8,9-dimethoxy-5H-benzo[c][1,8]naphthyridin-6-one]
36 | > 0.1 | COc1cc2c(=O)[nH]c3nccc(Nc4ccc(F)cc4)c3c2cc1OC [Example 215, 1-(4-Fluoro-phenylamino)-8,9-dimethoxy-5H-benzo[c][1,8]naphthyridin-6-one]
